Laboratory results: US20260158020A1, “COMPOSITIONS AND USES THEREOF” (BENEVOLENTAI CAMBRIDGE LIMITED, priority 2020, published 2026)
Read-outs that look alike come from different tables or passages of the source.

Columns and labels:
[1] = cited from earlier work
other PDE family members [2] = settings: cited from earlier work
PDE10A [3] = molecular target: T1, PDE10A (Homo sapiens, UniProt Q9Y233); settings: read-out: binding affinity (Kd) PDE10A; cited from earlier work
[4] = test system: animals, conditioned avoidance response model; settings: cited from earlier work
PDE10A [5] = molecular target: T1, PDE10A; settings: cited from earlier work
human PDE10 = human PDE10 (Homo sapiens, UniProt Q9Y233); settings: cited from earlier work
[6] = test system: rat models relevant to schizophrenia; settings: 0.1-0.3 mg/kg; cited from earlier work
[7] = test system: rat models relevant to schizophrenia; settings: 0.1-0.3 mg/kg; cited from earlier work; remark: listed apart in the source
rat PDE10 = molecular target: T2, rat PDE10 (Rattus norvegicus, UniProt Q9QYJ6); settings: cited from earlier work
T2 sequence (Q9QYJ6 1-794): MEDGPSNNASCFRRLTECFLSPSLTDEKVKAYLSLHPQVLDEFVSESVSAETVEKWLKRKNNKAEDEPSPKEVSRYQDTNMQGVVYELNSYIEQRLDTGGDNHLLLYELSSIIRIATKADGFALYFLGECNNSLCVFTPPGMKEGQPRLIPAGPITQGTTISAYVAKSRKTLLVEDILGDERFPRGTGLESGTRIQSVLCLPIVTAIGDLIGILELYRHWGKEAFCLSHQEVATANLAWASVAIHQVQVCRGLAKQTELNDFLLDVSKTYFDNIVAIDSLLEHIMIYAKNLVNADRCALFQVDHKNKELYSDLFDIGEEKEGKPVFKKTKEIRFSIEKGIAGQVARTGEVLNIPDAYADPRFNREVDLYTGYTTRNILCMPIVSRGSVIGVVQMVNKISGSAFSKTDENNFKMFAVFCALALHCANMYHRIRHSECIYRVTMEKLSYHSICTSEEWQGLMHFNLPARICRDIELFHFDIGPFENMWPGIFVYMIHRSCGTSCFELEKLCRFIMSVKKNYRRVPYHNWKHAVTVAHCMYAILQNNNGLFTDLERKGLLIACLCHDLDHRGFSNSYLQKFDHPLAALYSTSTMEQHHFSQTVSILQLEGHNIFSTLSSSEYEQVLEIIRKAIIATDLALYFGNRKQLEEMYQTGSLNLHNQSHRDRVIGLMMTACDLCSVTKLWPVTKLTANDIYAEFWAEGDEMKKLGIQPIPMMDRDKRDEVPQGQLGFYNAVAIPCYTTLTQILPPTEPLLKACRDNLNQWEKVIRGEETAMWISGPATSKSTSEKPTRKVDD

other PDE family members [8] = test system: T3, other PDE family members; settings: isolated enzyme biochemical assays; literature (Grauer 2009; Kunitomo 2014); read-out: IC50s for other PDE family members; cited from earlier work
T3 construct: other: isolated enzyme biochemical assays; literature (Grauer 2009; Kunitomo 2014)

[9] = test system: isolated human neutrophils; test: In vitro assay of IL-8 neutrophil activation; format: cell-based; settings: FIG. 3
[10] = test system: inflamed colonic mucosa from treatment-refractory ulcerative colitis patients; test: Ex-vivo culture of inflamed colon tissue from surgical resection of treatment-refractory UC patients, TNFα release (Method 2); format: cell-based, human; settings: colon samples from two treatment-refractory UC patients, with SEB, about 18 h, vs DMSO vehicle; printed 1 M (FIG. 6: 1 μM)
[11] = test system: inflamed colonic mucosa from ulcerative colitis patients; test: Ex-vivo culture of colon biopsies from ulcerative colitis patients, cytokine release (Method 1); format: cell-based, human; settings: colon biopsy samples from two UC patients, vs DMSO vehicle, PF-02545920 0.1 and 1 μM, TAK-063 1 μM, FIGS. 4 and 5
Protocol: The effect of selective PDE10 inhibition was tested on inflamed colonic mucosa from ulcerative colitis patients taken during routine endoscopy (Method 1 detailed below). These samples retain a disease phenotype in ex-vivo culture and secrete high basal levels of inflammatory cytokines. The effect of selective PDE10 inhibition on levels of the inflammatory cytokines IL-8 and IL-6 released from these tissue samples was measured.
These colon biopsies retain an inflammatory phenotype and secrete high levels of inflammatory cytokines in ex-vivo culture. […] The doses tested of each inhibitor will result in selective PDE10A inhibition over the other PDE family members.
Biopsy tissue was obtained from inflamed colonic mucosa from ulcerative colitis patients during routine endoscopy. Ex-vivo biopsy cultures for the analysis of inflammatory cytokine biomarkers were run as previously described (Vossenkämper A. et al. A CD3-specific antibody reduces cytokine production and alters phosphoprotein profiles in intestinal tissues from patients with inflammatory bowel disease. Gastroenterology, 2014, 147, 172-183). […] Supernatants collected at the end of the experiment were snap-frozen and stored at −70° C. For the measurement of cytokines, the frozen culture supernatants were thawed and analysed for levels of the inflammatory cytokines using Luminex cytokine assay kits (R&D Systems) and an R&D Systems MAGPIX® analyser. Mean values±SDs were calculated for the levels of spontaneous cytokine production measured in biopsy culture supernatants from each treatment group.

[12] = oral, rodents; cited from earlier work
[13] = test system: rodents with induced memory deficits; settings: oral, 0.1 to 3 mg/kg; cited from earlier work
rats = settings: cited from earlier work

T1 sequence (Q9Y233 whole entry): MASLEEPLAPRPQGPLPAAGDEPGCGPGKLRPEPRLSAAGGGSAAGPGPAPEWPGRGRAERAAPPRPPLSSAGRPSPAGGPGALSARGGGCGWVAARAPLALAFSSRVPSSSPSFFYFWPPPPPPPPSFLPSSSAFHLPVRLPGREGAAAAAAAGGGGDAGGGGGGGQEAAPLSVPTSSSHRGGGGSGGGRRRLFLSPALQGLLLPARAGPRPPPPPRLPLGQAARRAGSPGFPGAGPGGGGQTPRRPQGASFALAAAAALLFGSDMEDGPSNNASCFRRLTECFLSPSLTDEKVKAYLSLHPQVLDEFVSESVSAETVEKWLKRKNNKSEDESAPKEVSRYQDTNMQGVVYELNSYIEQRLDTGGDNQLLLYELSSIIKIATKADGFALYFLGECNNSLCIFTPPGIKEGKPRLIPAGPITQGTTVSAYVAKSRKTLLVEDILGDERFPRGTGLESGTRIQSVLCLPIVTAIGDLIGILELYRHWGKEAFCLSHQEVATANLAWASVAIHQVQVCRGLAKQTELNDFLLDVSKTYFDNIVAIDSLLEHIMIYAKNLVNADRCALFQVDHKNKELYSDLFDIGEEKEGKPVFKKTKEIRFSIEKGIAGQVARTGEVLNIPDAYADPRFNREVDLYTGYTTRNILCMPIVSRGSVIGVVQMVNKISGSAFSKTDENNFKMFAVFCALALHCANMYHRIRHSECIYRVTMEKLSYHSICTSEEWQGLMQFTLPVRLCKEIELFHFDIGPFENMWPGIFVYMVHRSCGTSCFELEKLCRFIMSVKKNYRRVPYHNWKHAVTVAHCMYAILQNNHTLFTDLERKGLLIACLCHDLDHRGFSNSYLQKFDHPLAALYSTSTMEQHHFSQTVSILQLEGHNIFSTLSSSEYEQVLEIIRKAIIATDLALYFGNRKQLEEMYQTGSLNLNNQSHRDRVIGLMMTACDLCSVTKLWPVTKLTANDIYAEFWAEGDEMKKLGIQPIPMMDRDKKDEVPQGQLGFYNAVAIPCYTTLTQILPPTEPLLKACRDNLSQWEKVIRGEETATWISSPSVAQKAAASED
Chain of human PDE10 (Q9Y233 whole entry): as above

Compound: CC(=O)N1CCC(c2nccnc2Oc2ccc(C(=O)c3nc4ccccc4[nH]3)cc2)CC1 [AMG-579, 1-[4-[3-[4-(1H-benzimidazole-2-carbonyl)phenoxy]pyrazin-2-yl]piperidin-1-yl]ethanone]
- oral bioavailability [1]: orally bioavailable
- IC50 (other PDE family members [2]; read-out: IC50 against all other PDE isoforms): > 30000 nM

Compound: CCNC(=O)c1sc(Nc2nc(Cl)cc(NCc3cccnc3)n2)nc1C [BMS-843496, 2-((4-chloro-6-((pyridin-3-ylmethyl)amino)pyrimidin-2-yl)amino)-N-ethyl-4-methylthiazole-5-carboxamide]
- Kd (PDE10A [3]): 0.15 nM
- antipsychotic effects, conditioned avoidance response model [4]: correlated with antipsychotic effects
- IC50 (PDE10A [5]): 2.11 nM
- selectivity over other PDE families / family members / phosphodiesterases (other PDE family members [2]): > 100 fold

Compound: Cc1ncc(C)n2nc(/C=C/c3nc(N4CCCC4)cc(N4CCOCC4)n3)nc12 [PDM-042, (E)-4-(2-(2-(5,8-dimethyl-[1,2,4]triazolo[1,5-a]pyrazin-2-yl)vinyl)-6-(pyrrolidin-1-yl)pyrimidin-4-yl) morpholine]
- IC50 (human PDE10): < 1 nM
- MK-801-induced hyperlocomotion [6]: significantly antagonized
- spontaneous locomotor activity [6]: without affecting
- selectivity over other PDE families / family members / phosphodiesterases (other PDE family members [2]): more than 1000 fold
- conditioned avoidance response [7]: attenuated
- IC50 (rat PDE10): < 1 nM

Compound: Cn1cc(-c2ccncc2)c(-c2ccc(OCc3ccc4ccccc4n3)cc2)n1 [PF-02545920, 2-[[4-(1-methyl-4-pyridin-4-ylpyrazol-3-yl)phenoxy]methyl]quinolone]
- IC50 (other PDE family members [8]): > 1000 nM
- IL-8 induced neutrophil activation [9]: dose dependently inhibited
- secreted levels of TNFα [10]: significantly reduced
- secreted levels of IL-6 [11]: significantly reduced
- secreted levels of IL-8 [11]: significantly reduced

Compound: COc1cc2ncnc(N3CC[C@@H](Oc4cnc5ccccc5n4)C3)c2cc1OC [PQ-10, 6,7-dimethoxy-4-[(3R)-3-quinoxalin-2-yloxypyrrolidin-1-yl]quinazoline]
- brain penetration [12]: highly brain penetrant
- induced memory defects [13]: reversed
- basic auditory information processing (rats): enhances

Compound: COc1cn(-c2ccc(-n3cccn3)cc2F)nc(-c2ccnn2-c2ccccc2)c1=O [TAK-063, 1-(2-fluoro-4-pyrazol-1-ylphenyl)-5-methoxy-3-(2-phenylpyrazol-3-yl)pyridazin-4-one]
- IC50 (other PDE family members [8]): > 5000 nM
- secreted levels of IL-6 [11]: significantly reduced
- secreted levels of IL-8 [11]: significantly reduced
